From patent US4594329A, “CRF analogs” (The Salk Institute for Biological Studies, priority 1984, dated 1986)
Square brackets hold non-standard residues; d marks the D form. Peptide text beside a SMILES is read from it. hArg = N=C(N)NCCCC[C@H](N)C(=O)O; Nle = CCCC[C@H](N)C(=O)O; Orn = NCCC[C@H](N)C(=O)O

How the values were obtained:
[1] = rats; administered into the ventricles; cited from earlier work
[2] = tested on: secretion of ACTH and β-endorphin; experiment: stimulation of ACTH and β-endorphin, background statements (in vitro and in vivo); conditions: synthetic peptide
[3] = lowering of blood pressure, in vivo testing
Experimental: (§1) The synthetic peptide AHC and oCRF were examined for their effects on the secretion of ACTH and β-endorphin in vitro and was also in vivo. The potency of synthetic oCRF to stimulate the secretion of ACTH and β-endorphin by cultured rat pituitary cells was measured using the procedure as generally set forth in Endocrinology, 91, 562 (1972). […] In vivo testing is carried out using the general procedure set forth in C. Rivier et al., Science, 218, 377 (1982).

[4] = in mammals; cited from earlier work
[5] = tested on: secretion of ACTH and β-endorphin; conditions: in mammals; cited from earlier work
[6] = tested on: cultured rat pituitary cells; experiment: secretion of ACTH and β-endorphin by cultured rat pituitary cells; type: cell-based; conditions: general procedure of Example III
Experimental: as §1

[7] = general procedure of Example III

Compound: CRF: corticotropin releasing factor, the hentetracontapeptide; species not stated at the place (H-SEEPPISLDLTFHLLREVLEMARAEQLAQQAHSNRKLMEII-NH2; ends and bridges not checked; UniProt P06850 154-194, looked up)
- activity [1]: increases activity
- learning performance [1]: improves learning performance

Compound: CC[C@H](C)[C@H](NC(=O)[C@@H](NC(=O)[C@H](CCC(=O)O)NC(=O)[C@H](CCSC)NC(=O)[C@H](CC(C)C)NC(=O)[C@H](CCCCN)NC(=O)[C@H](CCCNC(=N)N)NC(=O)[C@H](CC(N)=O)NC(=O)[C@H](CO)NC(=O)[C@H](Cc1c[nH]cn1)NC(=O)[C@H](C)NC(=O)[C@H](CCC(N)=O)NC(=O)[C@H](CCC(N)=O)NC(=O)[C@H](C)NC(=O)[C@H](CC(C)C)NC(=O)[C@H](CCC(N)=O)NC(=O)[C@H](CCC(=O)O)NC(=O)[C@H](C)NC(=O)[C@H](CCCNC(=N)N)NC(=O)[C@H](C)NC(=O)[C@H](CCSC)NC(=O)[C@H](CCC(=O)O)NC(=O)[C@H](CC(C)C)NC(=O)[C@@H](NC(=O)[C@H](CCC(=O)O)NC(=O)[C@H](CCCNC(=N)N)NC(=O)[C@H](CC(C)C)NC(=O)[C@H](CC(C)C)NC(=O)[C@H](Cc1c[nH]cn1)NC(=O)[C@H](Cc1ccccc1)NC(=O)[C@@H](NC(=O)[C@H](CC(C)C)NC(=O)[C@H](CC(=O)O)NC(=O)[C@H](CC(C)C)NC(=O)[C@H](CO)NC(=O)[C@@H](NC(=O)[C@@H]1CCCN1C(=O)[C@@H]1CCCN1C(=O)[C@H](CCC(=O)O)NC(=O)[C@H](CCC(=O)O)NC(=O)[C@@H](N)CO)[C@@H](C)CC)[C@@H](C)O)C(C)C)[C@@H](C)CC)C(N)=O [rCRF, reference compound]
- stimulation of ACTH and β-endorphin activities [2]: stimulate ACTH and β-endorphin activities in vitro and in vivo
- lowering of blood pressure ([3]; synthetic peptide, extended time period): substantially lower blood pressure for an extended time period

Compound: CC[C@H](C)[C@H](NC(=O)[C@@H](NC(=O)[C@H](CC(=O)O)NC(=O)[C@H](CC(C)C)NC(=O)[C@H](CC(C)C)NC(=O)[C@H](CC(C)C)NC(=O)[C@H](CCCNC(=N)N)NC(=O)[C@H](CC(N)=O)NC(=O)[C@H](CC(N)=O)NC(=O)[C@H](C)NC(=O)[C@H](C)NC(=O)[C@H](CCC(N)=O)NC(=O)[C@H](CCC(N)=O)NC(=O)[C@H](CCCCN)NC(=O)[C@H](CCC(=O)O)NC(=O)[C@H](CCCCN)NC(=O)[C@H](CCC(=O)O)NC(=O)[C@H](CCC(N)=O)NC(=O)[C@H](CCCCN)NC(=O)[C@H](CCC(=O)O)NC(=O)[C@@H](NC(=O)[C@H](CCC(=O)O)NC(=O)[C@@H](NC(=O)[C@H](CCSC)NC(=O)[C@H](CCCCN)NC(=O)[C@H](CCCNC(=N)N)NC(=O)[C@H](CC(C)C)NC(=O)[C@H](CC(C)C)NC(=O)[C@H](CCC(=O)O)NC(=O)[C@H](CC(C)C)NC(=O)[C@H](CO)NC(=O)[C@H](CC(C)C)NC(=O)[C@H](CC(=O)O)NC(=O)[C@@H](NC(=O)[C@H](CO)NC(=O)[C@@H](NC(=O)[C@@H]1CCCN1C(=O)[C@@H]1CCCN1C(=O)CNC(=O)[C@@H]1CCC(=O)N1)[C@@H](C)CC)[C@@H](C)CC)[C@@H](C)CC)[C@@H](C)CC)[C@@H](C)O)C(N)=O [Sauvagine]
- biological activity in lowering blood pressure (reported) [4]: biological activity in lowering blood pressure in mammals
- biological activity in stimulating the secretion of ACTH and β-endorphin (reported) [5]: stimulating the secretion of ACTH and β-endorphin

Compound: CC[C@H](C)[C@H](NC(=O)[C@H](CCC(=O)O)NC(=O)[C@H](CC(=O)O)NC(=O)[C@H](CCSC)NC(=O)[C@H](CC(C)C)NC(=O)[C@H](CCCCNC(=N)N)NC(=O)[C@H](CCCNC(=N)N)NC(=O)[C@H](CC(N)=O)NC(=O)[C@H](CC(N)=O)NC(=O)[C@H](C)NC(=O)[C@H](C)NC(=O)[C@H](CCC(N)=O)NC(=O)[C@H](CCC(N)=O)NC(=O)[C@H](CCCCN)NC(=O)[C@H](CC(C)C)NC(=O)[C@H](CCCCN)NC(=O)[C@H](CCC(=O)O)NC(=O)[C@H](CCC(N)=O)NC(=O)[C@H](CCCCN)NC(=O)[C@H](CCC(=O)O)NC(=O)[C@@H](NC(=O)[C@H](CCC(=O)O)NC(=O)[C@@H](NC(=O)[C@H](CCSC)NC(=O)[C@H](CCCCN)NC(=O)[C@H](CCCNC(=N)N)NC(=O)[C@H](CC(C)C)NC(=O)[C@H](CC(C)C)NC(=O)[C@H](CCC(=O)O)NC(=O)[C@H](CC(C)C)NC(=O)[C@H](CO)NC(=O)[C@H](CC(C)C)NC(=O)[C@H](CC(=O)O)NC(=O)[C@@H](NC(=O)[C@H](CO)NC(=O)[C@@H](NC(=O)[C@@H]1CCCN1C(=O)[C@@H]1CCCN1C(=O)CNC(=O)[C@@H]1CCC(=O)N1)[C@@H](C)CC)[C@@H](C)CC)[C@@H](C)CC)[C@@H](C)CC)C(N)=O
- stimulates the secretion of ACTH and β-END-LI [6]: stimulates the secretion of ACTH and β-END-LI
- lowering of blood pressure [3, 7]: very significant lowering of blood pressure

Compound: CC[C@H](C)[C@H](NC(=O)[C@@H](NC(=O)[C@H](CCC(=O)O)NC(=O)[C@H](CC(C)C)NC(=O)[C@H](CC(C)C)NC(=O)[C@H](CCCCN)NC(=O)[C@H](CCCNC(=N)N)NC(=O)[C@H](CC(N)=O)NC(=O)[C@H](CO)NC(=O)[C@H](Cc1c[nH]cn1)NC(=O)[C@H](C)NC(=O)[C@H](CCC(N)=O)NC(=O)[C@H](CCC(=O)O)NC(=O)[C@H](C)NC(=O)[C@H](CC(C)C)NC(=O)[C@H](CCC(N)=O)NC(=O)[C@H](CCC(=O)O)NC(=O)[C@H](CCCN)NC(=O)[C@H](C)NC(=O)[C@H](CCSC)NC(=O)[C@H](CCC(=O)O)NC(=O)[C@H](CC(C)C)NC(=O)[C@@H](NC(=O)[C@H](CCC(=O)O)NC(=O)[C@H](CCCNC(=N)N)NC(=O)[C@H](CC(C)C)NC(=O)[C@H](CC(C)C)NC(=O)[C@H](Cc1c[nH]cn1)NC(=O)[C@H](Cc1ccccc1)NC(=O)[C@@H](NC(=O)[C@H](CC(C)C)NC(=O)[C@H](CC(=O)O)NC(=O)[C@H](CC(C)C)NC(=O)[C@H](CO)NC(=O)[C@@H](NC(=O)[C@@H]1CCCN1C(=O)[C@@H]1CCCN1C(=O)[C@H](CCC(=O)O)NC(=O)[C@H](CCC(N)=O)NC(=O)[C@@H](N)CO)[C@@H](C)CC)[C@@H](C)O)C(C)C)[C@@H](C)CC)C(N)=O [[Gln^2, Orn^23, Glu^29, Leu^38]-rCRF] (H-SQEPPISLDLTFHLLREVLEMA[Orn]EQLAEQAHSNRKLLEII-NH2)
- stimulates the secretion of ACTH and β-END-LI [6]: stimulates the secretion of ACTH and β-END-LI
- lowering of blood pressure [3, 7]: very significant lowering of blood pressure

Compound: Ac-GEEPPISLDLTFHLLREVLEMARAEQLAQQAHLNRKLMEEI-NH2 [[Acetyl-Gly^1, Leu^33, Glu^40]-rCRF]
- stimulates the secretion of ACTH and β-END-LI [6]: stimulates the secretion of ACTH and β-END-LI
- lowering of blood pressure [3, 7]: very significant lowering of blood pressure

Compound: H-SEEPPISLDLTFHLLREVLE[Nle]A[hArg]AEQLAQQAHLNRKLMEE[Nle]-NH2
- stimulates the secretion of ACTH and β-END-LI [6]: stimulates the secretion of ACTH and β-END-LI
- lowering of blood pressure [3, 7]: very significant lowering of blood pressure

Compound: CCCC[C@H](NC(=O)[C@H](CCC(=O)O)NC(=O)[C@H](CCCNC(=N)N)NC(=O)[C@H](CC(C)C)NC(=O)[C@H](CC(C)C)NC(=O)[C@H](Cc1c[nH]cn1)NC(=O)[C@H](Cc1ccccc1)NC(=O)[C@@H](NC(=O)[C@H](CC(C)C)NC(=O)[C@H](CC(=O)O)NC(=O)[C@H](CC(C)C)NC(=O)[C@H](CO)NC(=O)[C@@H](NC(=O)[C@@H]1CCCN1C(=O)[C@@H]1CCCN1C(=O)[C@H](CCC(=O)O)NC(=O)[C@@H](N)CCC(N)=O)[C@@H](C)CC)[C@@H](C)O)C(=O)N[C@@H](CC(C)C)C(=O)N[C@@H](CCC(=O)O)C(=O)N[C@@H](CCSC)C(=O)N[C@H](C(=O)N[C@@H](CCCCN)C(=O)N[C@@H](C)C(=O)N[C@@H](CC(=O)O)C(=O)N[C@@H](CCC(N)=O)C(=O)N[C@@H](CC(C)C)C(=O)N[C@@H](C)C(=O)N[C@@H](CCC(N)=O)C(=O)N[C@@H](CCC(N)=O)C(=O)N[C@@H](C)C(=O)N[C@@H](Cc1c[nH]cn1)C(=O)N[C@@H](CO)C(=O)N[C@@H](CC(N)=O)C(=O)N[C@@H](CCCNC(=N)N)C(=O)N[C@@H](CCCCN)C(=O)N[C@@H](Cc1ccc(O)cc1)C(=O)N[C@@H](CC(C)C)C(=O)N[C@@H](CC(=O)O)C(=O)N[C@@H](CCC(=O)O)C(=O)N[C@@H](C)C(N)=O)[C@@H](C)O [[Nle^18,Tyr^37,Glu^40]-oCRF(2-41)] (H-QEPPISLDLTFHLLRE[Nle]LEMTKADQLAQQAHSNRKYLDEA-NH2)
- stimulates the secretion of ACTH and β-END-LI [6]: stimulates the secretion of ACTH and β-END-LI
- lowering of blood pressure [3, 7]: very significant lowering of blood pressure

Compound: H-SQEPPISLDLTFHLLRE[Nle]LE[Nle]AKAEQEAEQAALNRLLLEEA-NH2 [[Nle^18, 21]-AHC]
- stimulates the secretion of ACTH and β-END-LI [6]: stimulates the secretion of ACTH and β-END-LI
- lowering of blood pressure [3, 7]: very significant lowering of blood pressure
